Key:
[1] = system: CWR22R; assay: Growth inhibition of human 22Rv1 cells preincubated for 15 mins followed by UV irradiation and measured after 72 hrs by Celltiter-Glo assay; format: functional; settings: time 72.25 hrs
[2] = Half life of compound by UV-Visible spectrophotometric method; format: physicochemical

| half-life [2] [min] | SMILES | growth inhibition (GI) [1] |
| --- | --- | --- |
|  | Cc1sc2c(c1C)C(c1ccc(Cl)cc1)=N[C@@H](CC(=O)NCCOCCOCCNC(=O)COc1cccc3c1C(=O)N(C1CCC(=O)N(COC(C)c4cc5c(cc4[N+](=O)[O-])OCO5)C1=O)C3=O)c1nnc(C)n1-2 (some centres not stated) | <=39% |
| 58 | COc1cc(COC(=O)N2C(=O)CCC(N3C(=O)c4cccc(OCC(=O)NCCCCNC(=O)C[C@@H]5N=C(c6ccc(Cl)cc6)c6c(sc(C)c6C)-n6c(C)nnc65)c4C3=O)C2=O)c([N+](=O)[O-])cc1OC (some centres not stated) |  |

Source: ChEMBL document CHEMBL4765465, “Photoactive Bifunctional Degraders: Precision Tools To Regulate Protein Stability” (J Med Chem, 2020)
